The source of these data is patent publication US20230310445A1, “LOX ENZYME INHIBITING METHODS AND COMPOSITIONS” (ANOVIA BIOSCIENCES, INC., priority 2020, published 2023).

The structures appear in SMILES notation. Bounds are passed on as bounds.

The target of test [1] is T1, Bovine lysyl oxidase (LOX) (Bos taurus, UniProt P33072).
T1 construct: from tissue; host or cells: adult bovine tendon
T1 sequence (P33072 170-418): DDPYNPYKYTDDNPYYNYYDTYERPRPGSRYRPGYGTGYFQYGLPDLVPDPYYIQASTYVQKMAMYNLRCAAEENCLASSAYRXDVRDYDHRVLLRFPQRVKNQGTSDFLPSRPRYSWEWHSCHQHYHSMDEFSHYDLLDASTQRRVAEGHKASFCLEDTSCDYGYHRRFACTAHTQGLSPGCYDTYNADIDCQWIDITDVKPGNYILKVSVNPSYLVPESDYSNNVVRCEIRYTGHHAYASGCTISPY
The experiment in a line: LOX inhibition assay (fluorometric, cadaverine/Amplex Red/HRP). The format is biochemical. The note with it: IC50 class; bovine tendon LOX, cadaverine substrate; read-out: Activity Range LOX. Summed up:
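Bovine tendon-extracted LOX was preincubated 30 min at 37 °C with compound. Cadaverine/Amplex Red/HRP was then added and fluorescence (ex530/em600) monitored for 120 min at 37 °C. Progress-curve slopes, background-subtracted against no-protein wells, were normalised to DMSO controls and fitted with a four-parameter variable-slope dose-response model.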

The target of test [2] is T2, Recombinant human LOXL2 (lysyl oxidase like 2) (Homo sapiens, UniProt Q9Y4K0).
T2 construct: purchased R&D systems
T2 sequence (Q9Y4K0 26-774): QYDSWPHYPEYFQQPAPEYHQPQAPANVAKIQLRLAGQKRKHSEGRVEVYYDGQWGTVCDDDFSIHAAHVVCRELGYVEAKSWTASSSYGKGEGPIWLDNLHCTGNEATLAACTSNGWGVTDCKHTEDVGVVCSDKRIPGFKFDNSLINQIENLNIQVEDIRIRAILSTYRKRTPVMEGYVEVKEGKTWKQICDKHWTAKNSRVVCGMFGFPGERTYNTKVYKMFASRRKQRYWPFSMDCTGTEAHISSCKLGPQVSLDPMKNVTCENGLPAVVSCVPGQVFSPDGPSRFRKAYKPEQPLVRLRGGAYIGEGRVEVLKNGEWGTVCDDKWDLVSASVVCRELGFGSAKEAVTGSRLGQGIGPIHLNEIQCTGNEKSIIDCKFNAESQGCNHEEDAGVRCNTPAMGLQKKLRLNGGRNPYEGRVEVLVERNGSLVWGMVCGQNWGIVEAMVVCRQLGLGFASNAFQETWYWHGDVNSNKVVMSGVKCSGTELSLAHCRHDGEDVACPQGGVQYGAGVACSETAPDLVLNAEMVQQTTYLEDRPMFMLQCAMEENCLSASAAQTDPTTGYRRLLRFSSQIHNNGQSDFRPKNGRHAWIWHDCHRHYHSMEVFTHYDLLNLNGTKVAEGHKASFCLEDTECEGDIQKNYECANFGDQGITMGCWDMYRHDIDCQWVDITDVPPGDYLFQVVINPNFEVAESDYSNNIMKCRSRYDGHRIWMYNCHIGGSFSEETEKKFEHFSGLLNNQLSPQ
The experiment in a line: LOXL2 inhibition assay (fluorometric, cadaverine/Amplex Red/HRP). The format is biochemical. The note with it: IC50 class; recombinant human LOXL2, cadaverine substrate; read-out: Activity Range LOXL2. Summed up:
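Both enzymes assayed in 1.2 M urea, 50 mM sodium borate pH 8.0, 10 mM CaCl, with 30 min compound–enzyme preincubation at 37° C before cadaverine/Amplex Red/HRP addition. Fluorescence followed 60 min at 37° C; linear-slope rates, background-subtracted, as % of DMSO control, fitted by 4-parameter variable-slope curve (bottom fixed at 0).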

On to `CS(=O)(=O)N1C[C@H](Oc2cccc(CN)c2)C[C@H](c2ccccc2)C1` (racemic) [Example 25, cis-(3-((-1-(Methylsulfonyl)-5-phenylpiperidin-3-yl)oxy)phenyl)methanamine 2,2,2-trifluoroacetate], for which the results for the IC50 in test [1] and in test [2] were 1000 to 30000 nM and 500 to 1000 nM, respectively.

On to `CS(=O)(=O)N1CCN(C(=O)[C@H]2C[C@@H](c3ccccc3)CN(S(=O)(=O)c3cccc(CN)n3)C2)CC1` (racemic) [Example 116], for which the IC50 in test [1] is greater than 30000 nM; in test [2], 1000 to 30000 nM.

With `CS(=O)(=O)N1CCN(C(=O)[C@@H]2C[C@@H](c3ccccc3)CN(S(=O)(=O)c3ncc(CN)s3)C2)CC1` (racemic) [Example 113T, trans-(1-((5-(Aminomethyl)thiazol-2-yl)sulfonyl)-5-phenylpiperidin-3-yl)(4-(methylsulfonyl)piperazin-1-yl)methanone 2,2,2-trifluoroacetate], the IC50 in test [1] was 1000 to 30000 nM; in test [2] it was no more than 500 nM.

Take `NCc1cccc(O[C@H]2C[C@H](c3ccccc3)CN(C(=O)N3CCS(=O)(=O)CC3)C2)c1` (racemic) [Example 82, trans-(3-(3-(Aminomethyl)phenoxy)-5-phenylpiperidin-1-yl)(1,1-dioxidothiomorpholino)methanone]: the IC50 in test [1] was greater than 30000 nM; in test [2], 1000 to 30000 nM.

For the compound `CS(=O)(=O)[C@H]1C[C@@H](S(=O)(=O)c2ccc(CN)cc2)CN(c2ccccc2)C1` (racemic) [Example 22, cis-(4-((5-(Methylsulfonyl)-1-phenylpiperidin-3-yl)sulfonyl)phenyl)methanamine 2,2,2-trifluoroacetate], the IC50 in test [1] is 1000 to 30000 nM; in test [2] it was no more than 500 nM.

In the case of `CS(=O)(=O)N1CCN(C(=O)[C@H]2C[C@@H](c3ccccc3)CN(S(=O)(=O)c3ccc(CN)s3)C2)CC1` (racemic) [Example 76], the IC50 in test [1] and in test [2] was no more than 500 nM in each case.

In the case of `NCc1cccc(S(=O)(=O)N2C[C@@H](C(=O)N3CCOCC3)C[C@@H](C(F)(F)F)C2)c1` (relative stereo) [Example 98, cis-(1-((3-(Aminomethyl)phenyl)sulfonyl)-5-(trifluoromethyl)piperidin-3-yl)(morpholino)methanone 2,2,2-trifluoroacetate], the IC50 in test [1] is greater than 30000 nM; in test [2], 1000 to 30000 nM.

Consider `CS(=O)(=O)N1C[C@H](Oc2cc(CN)ccc2F)C[C@H](c2ccccc2F)C1` (racemic) [Example 71, cis-(4-Fluoro-3-((-5-(2-fluorophenyl)-1-(methylsulfonyl)piperidin-3-yl)oxy)phenyl)methanamine 2,2,2-trifluoroacetate], for which the figures for the IC50 in test [1] and in test [2] were greater than 30000 nM and 500 to 1000 nM, respectively.

With `NCc1ccnc(S(=O)(=O)N2C[C@@H](C(=O)N3CCS(=O)(=O)CC3)C[C@@H](N3CCCCC3=O)C2)c1` (racemic) [Example 187, cis-1′-((4-(Aminomethyl)pyridin-2-yl)sulfonyl)-5′-(1,1-dioxidothiomorpholine-4-carbonyl)-[1,3′-bipiperidin]-2-one 2,2,2-trifluoroacetate], the IC50 is 1000 to 30000 nM in test [1] and no more than 500 nM in test [2].

Take `CS(=O)(=O)N1C[C@H](Oc2cc(CN)ccc2F)C[C@H](c2ccccc2)C1` (racemic) [Example 69, cis-(4-Fluoro-3-((-1-(methylsulfonyl)-5-phenylpiperidin-3-yl)oxy)phenyl)methanamine 2,2,2-trifluoroacetate]: the IC50 in test [1] was greater than 30000 nM; in test [2], no more than 500 nM.

`CS(=O)(=O)N1CCN(C(=O)[C@@H]2C[C@@H](c3ccccc3)CN(S(=O)(=O)c3cccc(CN)n3)C2)CC1` (racemic) [Example 116T, trans-(1-((6-(Aminomethyl)pyridin-2-yl)sulfonyl)-5-phenylpiperidin-3-yl)(4-(methylsulfonyl)piperazin-1-yl)methanone 2,2,2-trifluoroacetate]: the IC50 was greater than 30000 nM in test [1] and 1000 to 30000 nM in test [2].

Consider `NCc1cccc(S(=O)(=O)[C@@H]2C[C@H](C3CCCCC3)CN(C(=O)N3CCS(=O)(=O)CC3)C2)c1` (racemic) [Example 137, cis-(3-((3-(Aminomethyl)phenyl)sulfonyl)-5-cyclohexylpiperidin-1-yl)(1,1-dioxidothiomorpholino)methanone], for which the IC50 was greater than 30000 nM in test [1] and no more than 500 nM in test [2].

Consider `CN(C)C(=O)N1C[C@@H](C2CCCCC2)C[C@@H](S(=O)(=O)c2cccc(CN)c2)C1` (racemic) [Example 135, cis-3-((3-(Aminomethyl)phenyl)sulfonyl)-5-cyclohexyl-N,N-dimethylpiperidine-1-carboxamide], for which the IC50 in test [1] was greater than 30000 nM; in test [2], no more than 500 nM.

Turning to `NCc1ccnc(S(=O)(=O)N2C[C@H](C(=O)N3CCOCC3)C[C@H](N3CCCCC3=O)C2)c1` (racemic) [Example 186, cis-1′-((4-(Aminomethyl)pyridin-2-yl)sulfonyl)-5′-(morpholine-4-carbonyl)-[1,3′-bipiperidin]-2-one 2,2,2-trifluoroacetate], the IC50 in test [1] is 1000 to 30000 nM; in test [2], no more than 500 nM.

As to `CN(C)C(=O)[C@@H]1C[C@H](S(=O)(=O)c2cccc(CN)c2)CN(C2CCCCC2)C1` (racemic) [Example 141, cis-5-((3-(Aminomethyl)phenyl)sulfonyl)-1-cyclohexyl-N,N-dimethylpiperidine-3-carboxamide], the IC50 in test [1] was greater than 30000 nM; in test [2], no more than 500 nM.

Consider `NCc1ccc(S(=O)(=O)N2C[C@@H](C(=O)N3CCOCC3)C[C@@H](c3ccccc3)C2)s1` [Example 13A, ((3S,5S)-1-((5-(aminomethyl)thiophen-2-yl)sulfonyl)-5-phenylpiperidin-3-yl)(morpholino)methanone], for which the IC50 in test [1] and in test [2] was no more than 500 nM in each case.

`NCc1cccc(S(=O)(=O)[C@H]2C[C@H](C3CCCCC3)CN(C(=O)N3CCS(=O)(=O)CC3)C2)c1` (racemic) [Example 137T, trans-(3-((3-(Aminomethyl)phenyl)sulfonyl)-5-cyclohexylpiperidin-1-yl)(1,1-dioxidothiomorpholino)methanone]: the IC50 was greater than 30000 nM in test [1] and no more than 500 nM in test [2].

Consider `NCc1ccc(S(=O)(=O)N2C[C@@H](C(=O)N3CCS(=O)(=O)CC3)C[C@@H](c3ccccc3)C2)s1` (racemic) [Example 75, cis-(1-((5-(Aminomethyl)thiophen-2-yl)sulfonyl)-5-phenylpiperidin-3-yl)(1,1-dioxidothiomorpholino)methanone 2,2,2-trifluoroacetate], for which the IC50 in test [1] and in test [2] was no more than 500 nM throughout.

For `NCc1cccc(O[C@@H]2C[C@H](c3ccccc3)CN(C(=O)N3CCS(=O)(=O)CC3)C2)c1` (racemic) [Example 73, cis-(3-(3-(Aminomethyl)phenoxy)-5-phenylpiperidin-1-yl)(1,1-dioxidothiomorpholino)methanone], the figures for the IC50 in test [1] and in test [2] were greater than 30000 nM and 1000 to 30000 nM, respectively.

On to `CN1CCN(C(=O)[C@H]2C[C@@H](N3CCCCC3)CN(S(=O)(=O)c3cc(CN)ccn3)C2)CC1` (racemic) [Example 150, cis-(1′-((4-(Aminomethyl)pyridin-2-yl)sulfonyl)-[1,3′-bipiperidin]-5′-yl)(4-methylpiperazin-1-yl)methanone 2,2,2-trifluoroacetate], for which the figures for the IC50 in test [1] and in test [2] were 1000 to 30000 nM and 500 to 1000 nM, respectively.
